Key:
RPE1 cells = assay: Autophagic flux assay (LC3-II turnover with bafilomycin A1); format: cell-based; conditions: 1 μM, 2 h, normal growth media
From the text: Fig. 2 UNI418 inhibits autophagy. a Western blot analysis of p62, LC3B-I, LC3B-II and GAPDH in the presence of UNC3230, apilimod and UNI418. b Immunofluorescence staining with LC3B (green) and p62 (red) antibodies upon treatment with UNC3230, apilimod and UNI418, and images within the white rectangular boxes are magnified on the right side. Scale bar, 20 µm. c The area of fluorescence intensity from immunofluorescence images (b) was quantified after UNC3230, apilimod and UNI418 treatments. d, e Quantification of autophagic flux under normal conditions and under HBSS-induced starvation conditions with or without UNI418 treatment. […]
The whole cell extracts were prepared by lysis of harvested cells with M -PER Mammalian protein extraction reagent (Thermo Fisher Scientific). The protein concentrations were determined by Bradford protein assay (Bio- Rad). […] The images were obtained and quantified by Fusion solo ChemiDoc system (Vilber).
Autophagic flux assay was analyzed essentially as previously described1,2.
Briefly, RPE1 cells were treated with UNI418 (0, 0.5, or 1 µM) for 2 h with/without bafilomycin A1 to inhibit lysosomal degradation under normal growth media or HBSS. […] The LC3- II bands were quantified using Fusion Solo ChemiDoc system (Vilber) and normalized to GAPDH bands. […]

cathepsin L = assay: Cathepsin L maturation by Western blot; format: cell-based; conditions: Vero cells
PIP5K1C = PIP5K1C (Homo sapiens, UniProt O60331); assay: SelectScreen Kinase Profiling Service (single point and 10 point titration); format: biochemical
From the text: (§1) UNI418 has a core structure consisting of 4-quinazolinamine (Fig. 1a, green), which is often found in kinase inhibitors. […] The phosphoinositide (PI) system is a crucial regulatory mechanism in membrane trafficking and is tightly regulated through phosphorylation cascades by multiple phosphatidylinositol phosphate kinases (PIPKs)[30]. We hypothesized that UNI418 may inhibit PIPK(s) and performed PIPK profiling analysis. […] To test whether UNI418 interacts with PIP5K1C and PIKfyve, we performed a CETSA, which determines the characteristics of protein stabilization upon ligand binding to the target protein[31]. UNI418- or DMSO-treated cell lysates were incubated at different temperatures, and the presence of the target protein in the soluble fraction was analyzed by Western blotting (Fig. 1c).
(§2) Fig. 1 UNI418 specifically targets PIP5K1 and PIKfyve. a Chemical structure of UNI418. The 4-quinazolinamine core is highlighted in green. b Table of the kinase profiling analysis. Inhibition of several kinases was determined at a 1 μM concentration of UNI418 and analyzed by the SelectScreen Kinase Profiling Service (Thermo Fisher Scientific). c Cellular thermal shift assay. Ectopically expressed GFP-PIP5K1C and GFP-PIKfyve were heated to the indicated temperatures with/without UNI418, and the presence of protein in the soluble fraction was analyzed by Western blot analysis. TEXT PRINTED IN THE PICTURE: (b) UNI418: % Inhibition (mean): 11 ([ATP] Tested (μM): 10; Kinase Tested: PI4K2A (PI4K2 alpha)); % Inhibition (mean): 4 ([ATP] Tested (μM): 10; Kinase Tested: PI4K2B (PI4K2 beta)); % Inhibition (mean): -6 ([ATP] Tested (μM): 10; Kinase Tested: PI4KA (PI4K alpha)); % Inhibition (mean): 48 ([ATP] Tested (μM): Km app; Kinase Tested: PI4KB (PI4K beta)); % Inhibition (mean): 20 ([ATP] Tested (μM): 10; Kinase Tested: PIK3C2B (PI3K-C2 beta)); % Inhibition (mean): 22 ([ATP] Tested (μM): 10; Kinase Tested: PIK3C2G (PI3K-C2 gamma)); % Inhibition (mean): 4 ([ATP] Tested (μM): 100; Kinase Tested: PIK3C3 (hVPS34)); % Inhibition (mean): 8 ([ATP] Tested (μM): 10; Kinase Tested: PIK3CA/PIK3R3 (p110 alpha/p55 gamma)); % Inhibition (mean): 7 ([ATP] Tested (μM): 10; Kinase Tested: PIK3CB/PIK3R2 (p110 beta/p85 beta)); % Inhibition (mean): 9 ([ATP] Tested (μM): 10; Kinase Tested: PIP4K2A); % Inhibition (mean): 67 ([ATP] Tested (μM): 10; Kinase Tested: PIP5K1A); % Inhibition (mean): 93 ([ATP] Tested (μM): 10; Kinase Tested: PIP5K1B); % Inhibition (mean): 93 ([ATP] Tested (μM): 10; Kinase Tested: PIP5K1C); % Inhibition (mean): 100 ([ATP] Tested (μM): 100; Kinase Tested: PIKFYVE) | (b) Apilimod: % Inhibition (mean): 100 ([ATP] Tested (μM): 100; Kinase Tested: PIKFYVE) […]
(§3) Supplementary Fig. 2 UNI418 inhibits PIP5K1B/C and PIKfyve. a Inhibition graph of PIP5K1 kinases at the 10 point titration with UNI418. IC 50 value of PIP5K1 kinases was analyzed by Thermo Fisher Scientific’s SelectScreen kinase profiling service. b Kd (nM) values of PIP5K1C and PIKfyve inhibition were determined using the Eurofins kinase assay service.
(§4) (1 picture or pasted object on this page, not shown here)

PIP5K1B = PIP5K1B (Homo sapiens, UniProt O14986); assay: as above; format: biochemical
From the text: as §1, §2, §3, §4

PIP5K1A = PIP5K1A (Homo sapiens, UniProt Q99755); assay: as above; format: biochemical
From the text: as §1, §2, §3, §4

PIP5K1C, sequence (O60331 whole entry): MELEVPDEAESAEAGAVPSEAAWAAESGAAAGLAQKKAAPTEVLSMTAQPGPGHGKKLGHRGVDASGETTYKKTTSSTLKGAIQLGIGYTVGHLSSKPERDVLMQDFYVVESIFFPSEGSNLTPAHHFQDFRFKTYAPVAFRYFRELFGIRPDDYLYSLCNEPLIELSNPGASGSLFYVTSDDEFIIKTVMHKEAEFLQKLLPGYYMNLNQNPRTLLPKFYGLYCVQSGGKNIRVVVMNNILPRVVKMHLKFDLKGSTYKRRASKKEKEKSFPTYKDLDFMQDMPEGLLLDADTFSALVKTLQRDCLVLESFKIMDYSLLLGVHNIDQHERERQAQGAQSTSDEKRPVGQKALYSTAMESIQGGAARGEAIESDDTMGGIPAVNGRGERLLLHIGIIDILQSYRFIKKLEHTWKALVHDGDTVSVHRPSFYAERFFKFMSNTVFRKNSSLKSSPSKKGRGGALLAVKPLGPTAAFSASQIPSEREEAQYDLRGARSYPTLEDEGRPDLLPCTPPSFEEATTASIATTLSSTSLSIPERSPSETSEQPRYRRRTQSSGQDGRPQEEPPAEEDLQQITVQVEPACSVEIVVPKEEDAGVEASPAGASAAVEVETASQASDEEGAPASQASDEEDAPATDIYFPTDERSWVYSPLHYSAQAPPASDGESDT
PIP5K1B, sequence (O14986 whole entry): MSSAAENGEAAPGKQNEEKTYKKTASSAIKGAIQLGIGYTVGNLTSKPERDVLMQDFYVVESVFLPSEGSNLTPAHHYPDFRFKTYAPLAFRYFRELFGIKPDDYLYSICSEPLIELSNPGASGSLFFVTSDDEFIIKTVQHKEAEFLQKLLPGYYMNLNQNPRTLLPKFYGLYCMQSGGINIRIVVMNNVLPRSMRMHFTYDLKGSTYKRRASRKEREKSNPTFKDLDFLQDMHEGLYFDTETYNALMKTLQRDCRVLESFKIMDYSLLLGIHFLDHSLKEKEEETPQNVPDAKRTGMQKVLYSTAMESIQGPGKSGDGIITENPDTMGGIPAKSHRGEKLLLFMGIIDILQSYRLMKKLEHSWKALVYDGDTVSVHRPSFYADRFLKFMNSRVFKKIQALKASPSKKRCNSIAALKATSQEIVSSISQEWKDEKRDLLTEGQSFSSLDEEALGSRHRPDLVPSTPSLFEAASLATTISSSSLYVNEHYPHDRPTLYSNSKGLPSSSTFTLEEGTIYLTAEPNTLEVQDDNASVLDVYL
PIP5K1A, sequence (Q99755 whole entry): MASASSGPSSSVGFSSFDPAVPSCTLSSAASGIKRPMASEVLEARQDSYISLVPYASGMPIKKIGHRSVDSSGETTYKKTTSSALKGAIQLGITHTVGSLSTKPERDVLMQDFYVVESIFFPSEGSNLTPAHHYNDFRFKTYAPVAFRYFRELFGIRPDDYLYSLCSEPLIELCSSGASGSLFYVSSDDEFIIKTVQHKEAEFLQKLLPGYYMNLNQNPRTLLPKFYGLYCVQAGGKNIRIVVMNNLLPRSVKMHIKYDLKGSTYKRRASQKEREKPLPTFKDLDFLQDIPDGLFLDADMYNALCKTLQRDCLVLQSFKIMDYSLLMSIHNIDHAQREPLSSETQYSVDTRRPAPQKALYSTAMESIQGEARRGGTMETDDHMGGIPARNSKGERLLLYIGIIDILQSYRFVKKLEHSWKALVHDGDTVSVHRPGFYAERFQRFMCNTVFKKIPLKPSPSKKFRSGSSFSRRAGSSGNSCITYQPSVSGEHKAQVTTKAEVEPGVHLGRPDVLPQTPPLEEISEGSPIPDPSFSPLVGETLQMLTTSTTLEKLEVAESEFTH

c1ccc(-c2cc(Nc3nc(-c4ccncc4)nc4ccccc34)n[nH]2)cc1 [UNI418, N -(5-phenyl-1 H -pyrazol-3-yl)-2-(4-pyridinyl)-4-quinazolinamine]
autophagic flux (RPE1 cells): markedly inhibited | proteolytic maturation of cathepsin L (cathepsin L): considerably inhibited | IC50 (PIP5K1C): 0.0601 µM | inhibition at 1 µM (PIP5K1C; 1 μM UNI418, [ATP] 10 μM): 93% | IC50 (PIP5K1B): 0.0607 µM | inhibition at 1 µM (PIP5K1B; 1 μM UNI418, [ATP] 10 μM): 93% | IC50 (PIP5K1A): 0.255 µM | inhibition at 1 µM (PIP5K1A; 1 μM UNI418, [ATP] 10 μM): 67%
